One assay deals with Rat isolated portal vein. Description: Rat isolated portal vein: inhibition of spontaneous contractions and of contractions due to added calcium. Also noted: species or system rat (male Sprague Dawley). The note with it: for IC50: Rattus norvegicus, 0.25 h, 15 min contact time, 6-9 tissues, 95% fiducial limits in next line. The procedure: (1) Rat isolated portal vein. Male Sprague Dawley rats (250-350 g) were killed by cervical dislocation. Portal veins (2-3cm in length) were set up under 0.8-1 g tension in a 10 ml organ bath containing Krebs-Henseleit solution, at 37° C., of the following composition (mM): NaCl 118, NaHCO3 25, glucose 5, KH2 PO4 1.18, KCl 4.69, MgSO4 0.59, CaCl2.H2 O 1.87. The tissue was aerated with a 95% oxygen and 5% carbon dioxide mixture. Isometric tension was recorded using a Devices strain gauge and recorder. Each preparation was allowed 1h to equilibrate before the addition of test compound. The ability of a compound to inhibit the contractions due to added calcium (3 mM CaCl2) was determined in tissues bathed in Krebs-Henseleit solution containing 0.05 mM CaCl2 (in order to reduce spontaneous contractions). Then percentage inhibition (mean ±s.e.m.; 6-9 tissues) of the amplitude of the spontaneous contractions, and contractions due to added calcium, was determined after 15 min contact time with test compound.
(1) Rat Isolated Portal Vein: effect of compound 1 on spontaneous contractions and those due to added calcium.
IC50 is concentration of compound reducing contractions by 50%; parenthesis indicate 95% fiducial limits.

The subject of assay [1] is potassium depolarised rat uterus. Description: Relaxation of potassium depolarised rat uterus. Also noted: species or system rat (female Sprague Dawley). The note with it: 7 preparations, relative to full relaxation with isoprenaline, read-out: % maximum relaxation. The procedure: Relaxation of Potassium Depolarised Rat Uterus
Female Sprague Dawley rats (120-160 g) were sacrificed and the uterine horns removed. Each horn was cut longitudinally to give a sheet of muscle which was further subdivided to give two preparations (i.e. 4 from each animal). Each tissue was mounted in a 10 ml organ bath containing normal Krebs buffer at 32° C. and gassed with 95% O2 -5% CO2. During an equilibration period of approximately 45 min the tissues were repeatedly stretched and washed to maintain a resting tension of 0.2 g. An increase in tension was induced by exchanging the Krebs buffer for one in which the sodium ions were replaced by the equivalent amount of potassium ions.
This caused the tissues to contract followed by a slow relaxation which equilibrated at a level above the initial resting level. A cumulative concentration effect curve to compound 1 was then carried out until the response to the final bath concentration (10^-4 M) had stabilised. Incremental concentrations of isoprenaline were then added until the tissues had fully relaxed. Results are expressed as a percentage of this maximum relaxation.
7 preparations were used.

Assay [2] deals with Rabbit isolated mesenteric artery. Description: Rabbit isolated mesenteric artery: relaxation of contractions due to KCl. Conditions: for IC50: Oryctolagus cuniculus, 4-9 tissues. Also noted: species or system rabbit (male New Zealand White). The procedure: (2) Rabbit isolated mesenteric artery. Mesenteric arteries (3 mm rings) were removed from male New Zealand White rabbits and mounted, at a resting tension of 1.5-2.0 g, in a 10 ml organ bath containing a Ringer solution, at 37° C., of the following composition (mM): NaCl 120.8; KCl 5.9; CaCl2 2.5; MgCl2 1.2; HEPES 5.8; glucose 11.5. The bathing solution was bubbled with a 95% oxygen and 5% carbon dioxide mixture. Each preparation was allowed 1-11/2 h to equilibrate before the addition of either 30 or 90 mM KCl to contract the tissue. The ability of test compound to relax the sustained contraction due to KCl was determined by assessing the % reduction (mean ±s.e.m.; 4-9 tissues) produced by varying concentrations of test compound.
(2) Rabbit Isolated Mesenteric Artery: effect of compound 1 on contractions due to 30 and 90 mM KCl.
IC50 is the concentration of compound 1 halving the contraction due to KCl; parenthesis indicate 95% fiducial limits.

The test system of a further assay is conscious guinea-pig. Description: Guinea pig asphyxic collapse model in vivo (histamine aerosol). Also on record: species or system guinea pig (female Dunkin-Hartley). The note with it: 5 mg/kg p.o., 30 min pretreatment, control 90 ± 10. The source says:
This model is based on the method described by Herxheimer (Br.J.Pharm.50, 314 (1974)]. Conscious female guinea pigs (Dunkin-Hartley strain, 500-700 g body weight) were placed individually into a Perspex chamber of approximately 8 litres capacity, and the animals were challenged with an histamine aerosol. The standard histamine aerosol was generated using a Monaghan 675 ultrasonic nebulizer (power setting 7) from a 5×10^-5 m solution of histamine acid phosphate in distilled water. After obtaining satisfactory aerosol generation, the aerosol was passed into the chamber for 10 seconds and the time was recorded from introduction of the aerosol until the guinea pig collapsed (termed asphyxic collapse). The animal was rapidly removed and allowed to recover. In this way, the mean time to asphyxic collapse for a group of guinea pigs was determined.
Compounds were administered orally to groups of animals and the degree of protection against histamine-induced asphyxic collapse was determined by the percentage increase in mean time to asphyxic collapse of a compound-treated group to asphyxic collapse for control groups was around 80-100 seconds. […]
The significance of any increase in the mean asphyxic collapse time of a compound-treated group of animals over that of a vehicle-treated control group was determined using students "t" test. […]

Another assay relates to Rat isolated colon. Description: Rat isolated colon: inhibition of spontaneous contractions. Also noted: species or system rat (male Wister). Conditions: 10 min, cumulative dosing at 10 min intervals, graphically determined, read-out: ID50 (concentration reducing amplitude of spontaneous contractions by 50%). The procedure: Rat isolated colon. Male Wister rats (Charles River U.K.) were killed by a blow on the head and a 2 cm segment of proximal colon excised. After gently washing free any luminal contents the tissue was suspended longitudinally in a 10 ml organ bath containing Krebs solution of the following composition: NaCl 118.1 mM, KH2 PO4 1.18 mM, NaHCO3 25 mM, KCl 4.69 mM, MgSO4 1.64 mM, CaCl2 2.52 mM, Glucose 11.1 mM. This solution was maintained at 37° C. and constantly bubbled with 95% O2 : 5% CO2. Isometric contractions were recorded from the tissue with an initial tension of 1 g being applied.
The inhibitory effects of compounds 1+2 were assessed from the reduction in amplitude of the spontaneous contractions of the colon. Cumulative dose-response curves were constructed with the compounds being applied to the bath at intervals of 10 mins. ID50 (concentration of drug reducing amplitude of contractions by 50%) was graphically determined from the dose-response curve.
Rat isolated colon : effect of compounds 1 and 2 on spontaneous contractions

These results are taken from US4786639A, “Method for the treatment of reversible airways obstruction and asthma” (Beecham Group p.l.c., priority 1984, dated 1988).

Converted amounts (≈) assume the structure as drawn. Like-named read-outs stand apart in the source and are kept apart here. A value given as a limit tells only on which side of the number the result lay.

`CC1(C)Oc2ccc(C#N)cc2[C@@H](N2CCCC2=O)[C@@H]1O` (relative stereo) [Compound 1, 6-cyano-3,4-dihydro-2,2-dimethyl-trans-4-(2-oxo-1-pyrrolidinyl)-2H-benzo[b]pyran-3-ol]: the IC50 is 150 nM with Rat isolated portal vein (contractions due to added calcium (3 mM CaCl2), read-out: IC50 Ca^2+ (3 mM) contractions); 120 nM with Rat isolated portal vein (spontaneous contractions, read-out: IC50 Spontaneous contractions); 510 nM in assay [2] (30 mM KCl, 95% fiducial limits in next line, read-out: IC50 30 mM KCl contraction); more than 10000 nM in assay [2] (90 mM KCl, read-out: IC50 90 mM KCl contraction); 0.12 µg/mL (≈ 0.419 µM) in the assay on Rat isolated colon. In addition, the “relative potency, spontaneous contractions vs those due to added calcium” value in the assay on Rat isolated portal vein (spontaneous contractions and those due to added calcium) is “equipotent”. Besides, the activation at 100 µM in assay [1] (1 × 10^-4 M) was 61 ± 6%. Further, in assay [1] (1 × 10^-5 M), the activation at 10 µM came out at 18 ± 3%. Also, the activation at 30 µM in assay [1] (3 × 10^-5 M) came out at 31 ± 3%. Moreover, the activation at 3 µM in assay [1] (3 × 10^-6 M) was 6 ± 2%. Moreover, the “effect against a high concentration of KCl” value in assay [2] (high concentration of KCl) is “effectiveness of compound 1 against a high concentration of KCl”. In addition, the “antagonism of contractions due to potassium” value in assay [2] (partially (low KCl) vs fully (high KCl) depolarising concentration) is given as “antagonises the contractions due to a partially, but not a fully, depolarising concentration of potassium”. Also, the Mean collapse time in the assay on conscious guinea-pig (N=5, *p < 0.05) is 154 ± 26 s.

With `CC1(C)Oc2ccc(Cl)cc2[C@@H](N2CCCC2=O)[C@@H]1O` (relative stereo) [Compound 2, 6-chloro-3,4-dihydro-2,2-dimethyl-trans-4-(2-oxo-1-pyrrolidinyl)-2H-benzo[b]pyran-3-ol], the IC50 in the assay on Rat isolated colon came out at 1.7 µg/mL (≈ 5.75 µM).

As for `CCN(C(C)=O)[C@@H]1c2cc(C#N)ccc2OC(C)(C)[C@H]1O` (relative stereo) [Compound 4, trans-4-(N-acetyl)-ethylamino-6-cyano-3,4-dihydro-2,2-dimethyl-2H-benzo[b]pyran-3-ol], the Mean collapse time in the assay with conscious guinea-pig (N=4, **p < 0.01) worked out at 176 ± 25 s.
